{"source": "a melting point compilation (Tetko et al.; mined from patent text by program, amines drawn as free bases though some values may be those of a salt)", "note": "Non-standard residues stand in square brackets, D forms with d. Residues, ends and D or L forms follow the SMILES beside them. *: point of attachment. NHPhenethyl = c1ccc(CCN*)cc1; pGlu = O=C1CC[CH](C(=O)O)N1", "data": [{"units": {"melting point": "°C"}, "values": [{"smiles": "N#CC12COc3cc(Cl)ccc3C1=NN(C(=O)Nc1ccc(C(F)(F)F)cc1)C2", "note": "(stereo not drawn)", "melting point": "227 to 229"}, {"smiles": "O=C1c2ccccc2-c2c1c(Cl)nc1cc(OCc3ccccc3)ccc21", "melting point": "212 to 214"}, {"smiles": "CCOC(=O)C(=O)Nc1cc(C#N)cc(NC(=O)C(=O)OCC)c1", "melting point": "189 to 190"}, {"smiles": "Cc1ccc(C=Cc2cccc(C#N)n2)cc1", "melting point": "137 to 138"}, {"smiles": "COc1ccc(N2C(=S)N(c3ccc(Oc4ccccc4)cc3)C(=O)C2C)cc1", "note": "(stereo not drawn)", "melting point": "208 to 210"}, {"smiles": "COc1ccc2c(C(C)C(=O)OC3CC(=O)NC3=O)cccc2c1", "note": "(stereo not drawn)", "melting point": 126}, {"smiles": "CCOC(=O)c1cn(C)c2cc(Cl)sc2c1=O", "melting point": "168 to 171"}, {"smiles": "CN(CCSC(=O)Cc1ccccc1Nc1c(Cl)cccc1Cl)CC1(SN=O)CCCCC1", "melting point": "115 to 129"}, {"smiles": "CCOC(=O)c1ccc(N)c(C(CCNC(=O)OC(C)(C)C)=NOC(C)=O)c1", "melting point": "130 to 135"}, {"smiles": "CC(C)(C)OC(=O)NC(COCc1ccccc1)c1nc2c(C(F)(F)F)cccc2c(O)c1C(=O)Nc1nccs1", "note": "(stereo not drawn)", "melting point": 208}, {"smiles": "CCOC(=O)c1nc2cc(NC(=O)OC(C)(C)C)ccn2n1", "melting point": "220 to 222"}, {"smiles": "Cc1c(C=O)cc(-c2ccc(S(C)(=O)=O)cc2)n1-c1ccc(F)cc1", "melting point": "136 to 138"}, {"smiles": "COC(=O)CCCc1cc2nc(Cl)ccc2n1S(=O)(=O)c1ccc(C)cc1", "melting point": 106}, {"smiles": "Cc1ccc(C2CCN(C(=O)CCC(=O)c3ccc4c(c3)CCN(C)CC4)CC2)cc1", "melting point": "111 to 112"}, {"smiles": "CCCN(C(=O)CBr)c1ccc([N+](=O)[O-])cc1C(=O)c1ccccc1", "melting point": 122}, {"smiles": "COC(=O)C(=O)c1ccc(OCCCNC(=O)c2ccc3ccccc3c2)cc1", "melting point": "143 to 144"}, {"smiles": "Cc1cccc(C(=O)NO)c1N(C)S(=O)(=O)c1ccc(OCCCCNC(=O)c2ccc3c(c2)OCO3)cc1", "melting point": "117 to 121"}, {"smiles": "Cc1ccc(NC(=O)c2cccc(CN3C(=O)C4(COc5cc6c(cc54)CCO6)c4ccccc43)c2)c(C)c1", "note": "(stereo not drawn)", "melting point": "234 to 235"}, {"smiles": "CC(=O)N1CCN(CCCOc2ccc(NC(=O)c3cc(F)cc(N4CCCCC4)c3)c3ccccc23)CC1", "melting point": "210 to 211"}, {"smiles": "COc1ccc(NC(=S)c2ccc(N(C)C)cc2)cc1", "melting point": 192}, {"smiles": "CCOC(=O)c1c(C(C)C)c[nH]c1C", "melting point": "67 to 68.5"}, {"smiles": "Nc1nc(N)nc(N2CC=CCC2)n1", "melting point": "200 to 202"}, {"smiles": "Cc1cc(I)ccc1N=C=S", "melting point": "51 to 53"}, {"smiles": "O=C(Cn1ncc(-c2ccccc2)c1-c1ccccc1)NCCCO", "melting point": "138 to 139"}, {"smiles": "CCCCCCCCCCCC(=O)c1ccc(CCOC(C)=O)cc1", "melting point": "32 to 33"}, {"smiles": "CNc1nc(Nc2ccc(S(C)(=O)=O)cc2)ncc1[N+](=O)[O-]", "melting point": 323}, {"smiles": "O=C(O)c1cc(N2CCN(Cc3ccccc3)CC2)ccc1[N+](=O)[O-]", "melting point": 172}, {"smiles": "CC(C)(C)OC(=O)CCOCCCc1cccc(-c2nc(=O)c3ccccc3s2)n1", "melting point": "71 to 71.9"}, {"smiles": "CCOC(=O)CCCC(=NO)c1ccccc1", "melting point": "28 to 30"}, {"smiles": "c1ccc(CO[C@@H]2CCC[C@H]2Nc2nc(N3CCN(c4ccccc4)CC3)nc3c2SCC3)cc1", "melting point": "100 to 105"}, {"smiles": "Cc1noc(C)c1Cn1cc(N2C(=O)CN(CCOc3ccccc3)C2=O)cn1", "melting point": "117 to 118"}, {"smiles": "O=C(NCC12CC3CC(CC(C3)C1)C2)c1cc(OCCO)ncc1Cl", "melting point": "154 to 155"}, {"smiles": "CC(=NO)c1ccc(Cl)c(S(N)(=O)=O)c1", "melting point": "157 to 158"}, {"smiles": "CCCCCCCC1CCC(CC(C#N)c2ccc(Br)cc2)CC1", "note": "(stereo not drawn)", "melting point": "56 to 57"}, {"smiles": "Oc1ccc2nc(NC3=NCCN3)[nH]c2c1", "melting point": "254 to 258"}, {"smiles": "CC1Oc2c(cc(CN3CCN(c4ccc(C(=O)NC5CC5)cc4)CC3)cc2C2CC2)NC1=O", "note": "(stereo not drawn)", "melting point": "202 to 207"}, {"smiles": "O=C(O)CCCOc1ccc(N2CCN(c3ccncc3)CC2)cc1[N+](=O)[O-]", "melting point": "219 to 220"}, {"smiles": "Cc1ccc(C)c(OCc2ccccc2CCl)c1", "melting point": "46.5 to 48.5"}, {"smiles": "CC(CC(C)(C)OOC(=O)NC1CCCCC1)OC(=O)NC1CCCCC1", "note": "(stereo not drawn)", "melting point": "224 to 226"}, {"smiles": "O=C(NCCc1ccccc1)c1ccc(Cl)nc1", "melting point": "95 to 96"}, {"smiles": "NC(=O)CC(NC(=O)C(CO)NC(=O)CNC(=O)CNC(=O)C1CCC(=O)N1)C(=O)NC(Cc1ccccc1)C(=O)NCCc1ccccc1", "note": "(stereo not drawn) ([pGlu]GGSNF-NHPhenethyl; configuration not given here)", "melting point": "209 to 211"}, {"smiles": "CC(N(CC(=O)O)C(=O)c1ccc(C(F)(F)F)cc1)C(O)(Cn1cncn1)c1ccc(C(F)(F)F)cc1", "note": "(stereo not drawn)", "melting point": "201 to 204"}, {"smiles": "COc1c(C=O)ccc2c1oc1ccccc12", "melting point": "178 to 180"}, {"smiles": "Cc1cc(SC2=C(O)CC(CCc3ccc(O)cc3)(C3CCCC3)OC2=O)c(C(C)(C)C)cc1CO", "note": "(stereo not drawn)", "melting point": "199 to 201"}, {"smiles": "Cc1cccc2sc(COc3ccc(F)c(C(N)=O)c3F)nc12", "melting point": "201 to 202"}, {"smiles": "COc1ccc(C(=O)O)c(OCCN2CCC(c3cn(Cc4ccoc4)c4ncccc34)CC2)c1", "melting point": "91.5 to 93.2"}, {"smiles": "CC(C)(C)N1CC=C(c2c[nH]c(-c3ccc(F)cc3)c2-c2ccncc2)CC1", "melting point": "242 to 244"}, {"smiles": "O=C(O)C1CCCCC1n1nc(-c2c(-c3ccccc3)nn3ccccc23)ccc1=O", "note": "(stereo not drawn)", "melting point": 164}, {"smiles": "O=C1c2ccccc2COc2ccc(Br)cc21", "melting point": "132 to 134"}, {"smiles": "CCOC(=O)c1ccc(-c2ccc(OCCCNC)c(-c3ccc4c(c3)C(C)(C)CCC4(C)C)c2)cc1", "melting point": 141}, {"smiles": "CC[C@@H](NC(=O)N1CC(=O)NCC(Cc2cc(Cl)ccc2OC)C1=O)C(=O)Nc1nnn[nH]1", "note": "(stereo partly drawn)", "melting point": "141 to 142"}, {"smiles": "CC(C)(C)OC(=O)N(OCc1ccccc1)C(=O)OC(C)(C)C", "melting point": "77.5 to 78.5"}, {"smiles": "CCOC(=O)c1cc(F)c(SC)nc1NC1CC1", "melting point": "67 to 69"}, {"smiles": "O=C1NCCc2c(-c3ccc(C(F)(F)F)cc3)[nH]c3cccc1c23", "melting point": "208 to 209"}, {"smiles": "COc1cc(Nc2nc3ccnc(-c4ccc(N)cc4)c3o2)cc(OC)c1OC", "melting point": "148 to 151"}, {"smiles": "O=c1oc(-c2ccccc2)cc(O)c1C(Sc1ccccc1)c1ccc2ccccc2c1", "note": "(stereo not drawn)", "melting point": "98 to 101"}, {"smiles": "OC1CSC(Oc2cccc(-c3ccncc3)n2)C(O)C1O", "note": "(stereo not drawn)", "melting point": 178}, {"smiles": "CCOC(=O)C(CC)(CC)CCS(N)(=O)=O", "melting point": "93 to 94"}, {"smiles": "CCC(O)(CC)CC1NC(=O)c2ccccc21", "note": "(stereo not drawn)", "melting point": "130 to 132"}, {"smiles": "Cc1cn(C(C)(C)C(=O)N(C)C)nc1-c1ccco1", "melting point": "131 to 134"}, {"smiles": "N#Cc1cnn2c1NCC=C2c1cccc(C(F)(F)F)c1", "melting point": "175 to 177"}, {"smiles": "O=C1NCCc2c(Cl)cccc21", "melting point": "143 to 148"}, {"smiles": "Cc1cccc2c1C(=O)N1CC[C@H]1C(=O)N2", "melting point": "159 to 160"}, {"smiles": "N#CCc1ccc2oc3ncccc3c(=O)c2c1", "melting point": "198 to 201"}, {"smiles": "O=C(c1ccc(OCC2CC2)c2oc3ccccc3c12)[NH+]([O-])c1ccncc1", "note": "(stereo not drawn)", "melting point": "266 to 268"}, {"smiles": "Cn1c(=O)nc(-c2ccccc2F)c2cc(Cl)sc21", "melting point": "192 to 194"}, {"smiles": "CC(C)(C)OC(=O)CS(=O)c1cccc(-c2nc(=O)c3ccccc3s2)n1", "note": "(stereo not drawn)", "melting point": 159}, {"smiles": "O=C(/C=C/c1cccc(Cl)c1)NC1CC1", "melting point": "112 to 113"}, {"smiles": "CC(C)(C)c1cc(CCc2nnco2)cc(C(C)(C)C)c1O", "melting point": "100 to 101"}, {"smiles": "Cc1cc2c(cc1C)-n1c(C)nnc1C=C(c1ccc(-n3c(C)nc4cnccc43)cc1)N2", "melting point": "294 to 296"}, {"smiles": "Nc1c([N+](=O)[O-])sc2cc(Cl)ccc12", "melting point": "243 to 245"}, {"smiles": "CC(=O)Nc1cccc(-c2nc3ncccc3[nH]2)c1", "melting point": "> 250"}, {"smiles": "CC(C)C(=O)c1c(C(C)(C)C)cc(C=[N+]([O-])C(C)(C)C)cc1C(C)(C)C", "melting point": "197 to 208"}, {"smiles": "COc1ccc2c(c1)C(CCCN1C(=O)c3ccccc3C1=O)=CCO2", "melting point": "78 to 80"}, {"smiles": "CCc1nc2cc(Nc3nccc(-c4ccc(N5CCNCC5)nc4)n3)ccc2o1", "melting point": "156 to 159"}, {"smiles": "O=c1cc(-c2ccc(O)c(F)c2)oc2ccccc12", "melting point": "275 to 276"}, {"smiles": "O=C(c1ccc(F)nc1)N1CCC[C@H](c2nc(-c3ccc[nH]3)no2)C1", "melting point": "131 to 132"}, {"smiles": "CCc1nc2c(N)nc3ccccc3c2o1", "melting point": "175 to 178"}, {"smiles": "CC(=Cc1ccc2ccc3cccc4ccc1c2c34)c1ccc(Cl)cc1", "melting point": "162 to 164"}, {"smiles": "CCC=CCn1c(=O)sc2c(=O)n(N)c(N)nc21", "melting point": "137 to 139"}, {"smiles": "CS(=O)(=O)Nc1ccccc1OCCCN1CCC(OC(c2ccsc2)c2ccsc2)CC1", "melting point": "92 to 94"}, {"smiles": "Cc1oc(-c2ccccc2)nc1COc1cccc(C=CC=Cc2nnn[nH]2)c1", "melting point": "201 to 202"}, {"smiles": "CCC(CC(=O)NC(=O)OC(C)(C)C)Nc1ccc(Cl)cc1", "note": "(stereo not drawn)", "melting point": "93 to 94"}, {"smiles": "CCC(C(=O)c1ccc(Cl)cc1)n1ncn(-c2ccc(N3CCN(C(=O)Cc4ccccc4)CC3)cc2)c1=O", "note": "(stereo not drawn)", "melting point": 172}, {"smiles": "Cc1ccc(-n2c(=O)c3c(N4CCNCC4)cc(Cl)cc3n(Cc3ccccc3)c2=O)cc1", "melting point": "120 to 124"}, {"smiles": "Cc1ccc(C(=O)N(c2ccccc2)c2ccc(OCCN(C)C)cc2)cc1", "melting point": "74.5 to 77.5"}, {"smiles": "CCCC1=C(C#N)C(c2ccccc2Cl)c2c(n[nH]c2C2CCCC2)N1", "note": "(stereo not drawn)", "melting point": "> 270"}, {"smiles": "CCOC(=O)c1cnc2cc(OC)c(OC)cc2c1", "melting point": "> 300"}, {"smiles": "COc1ccc(C(=O)N2CCN(C(=O)C3=Cc4cc(OC)c(OC)cc4CC3)CC2)cc1OC", "melting point": "190 to 191"}, {"smiles": "O=C(COc1ccc(-c2ccccc2)cc1)Nc1cscc1C(=O)O", "melting point": "247 to 251"}, {"smiles": "CCOP(=O)(/C=C/c1cn(-c2ccccc2)nc1OCc1ccc(OCc2nc(N3CCOCC3)sc2C)c(OC)c1)OCC", "melting point": "88 to 90"}, {"smiles": "COc1cc2nc(N)nc(-c3ccc(O)cc3Cl)c2cc1OC", "melting point": "245 to 247"}, {"smiles": "c1ccc(-c2ccc(NCc3nccc(-c4ccc(-c5ccc(N(c6ccccc6)c6ccccc6)cc5)cc4)n3)cc2)cc1", "melting point": "224 to 225"}, {"smiles": "S=[PH2]CCC(c1ccccc1)(c1ccccc1)c1ccccc1", "melting point": 88}, {"smiles": "COC(=O)CCC(=O)c1ccc(CCCCCCNC(C)=O)cc1", "melting point": "87 to 89"}, {"smiles": "Cc1nc(NCC(F)(F)F)c2nc(-c3ccccc3)cc-2[nH]1", "melting point": "> 310"}, {"smiles": "CN(C)c1cccc(NC(=S)NN=Cc2ccc(-c3ncn(-c4ccc(OC(F)(F)F)cc4)n3)cc2)c1", "melting point": "192 to 194"}, {"smiles": "CC#Cc1cn(C2CC(OC(C)=O)C(COC(C)=O)O2)c(=O)[nH]c1=O", "note": "(stereo not drawn)", "melting point": "148 to 149"}]}]}
